Results reported in patent US20220169632A1, “METHODS AND MATERIALS FOR INCREASING OR MAINTAINING NICOTINAMIDE MONONUCLEOTIDE ADENYLYL TRANSFERASE-2 (NMNAT2) POLYPEPTIDE LEVELS” (University of Pittsburgh - Of the Commonwealth System of …, priority 2019, published 2022).

Tested on: NMNAT2
Assay: NMNAT2-Hibit nano-luciferase activity in stably transfected U87MG cells, various concentrations, 24 hours
Assay type: cell-based
Conditions: U87MG cells stably transfected with NMNAT2-Hibit luc plasmid
Method: Selected compounds were tested in vitro. U87MG cells were stably transfected with NMNAT2-Hibit luc plasmid. Cells were treated with a test compound at various concentrations for 24 hours. Cells were then collected and assayed for nano-luciferase activity.

SMILES | E: compound efficacy for NMNAT2 activation (concentration giving >25% increase in NMNAT2 luciferase activity)
Cc1ccc(Cn2cc([C@H]3C[C@@H]3C(=O)NCc3ccco3)c3ccccc32)cc1 (racemic) [BC20293] | ++ (“++” >25% increase in NMNAT2 luciferase activity at >1 μM ≤25 μM.)
Cc1ccc(Cn2cc([C@H]3C[C@@H]3C(=O)NCc3ccc(C)o3)c3ccccc32)cc1 (racemic) [BC20294] | + (“+” >25% increase in NMNAT2 luciferase activity at >25 μM.)
Cc1ccc(Cn2cc([C@H]3C[C@@H]3C(=O)NCc3cccc(F)c3)c3ccccc32)cc1 (racemic) [BC20295] | + (“+” >25% increase in NMNAT2 luciferase activity at >25 μM.)
Cc1ccc(Cn2cc([C@H]3C[C@@H]3C(=O)NCc3ccccc3C)c3ccccc32)cc1 (racemic) [BC20296] | ++ (“++” >25% increase in NMNAT2 luciferase activity at >1 μM ≤25 μM.)
Cc1ccc(Cn2cc([C@H]3C[C@@H]3C(=O)NCc3cccc(C)c3)c3ccccc32)cc1 (racemic) [BC20297] | + (“+” >25% increase in NMNAT2 luciferase activity at >25 μM.)
COc1ccccc1CNC(=O)[C@H]1C[C@@H]1c1cn(Cc2ccc(C)cc2)c2ccccc12 (racemic) [BC20298] | + (“+” >25% increase in NMNAT2 luciferase activity at >25 μM.)
COc1cccc(CNC(=O)[C@H]2C[C@@H]2c2cn(Cc3ccc(C)cc3)c3ccccc23)c1 (racemic) [BC20299] | + (“+” >25% increase in NMNAT2 luciferase activity at >25 μM.)
Cc1ccc(Cn2cc([C@H]3C[C@@H]3C(=O)NCCc3ccccc3)c3ccccc32)cc1 (racemic) [BC20300] | ++ (“++” >25% increase in NMNAT2 luciferase activity at >1 μM ≤25 μM.)
Cc1ccc(Cn2cc([C@H]3C[C@@H]3C(=O)NCc3cccnc3)c3ccccc32)cc1 (racemic) [BC20301] | + (“+” >25% increase in NMNAT2 luciferase activity at >25 μM.)
Cc1ccc(C)c(Cn2c(C)c([C@H]3C[C@@H]3C(=O)NCc3cccc(F)c3)c3ccccc32)c1 (racemic) [BC20302] | + (“+” >25% increase in NMNAT2 luciferase activity at >25 μM.)
Cc1cccc(CNC(=O)[C@H]2C[C@@H]2c2c(C)n(Cc3cc(C)ccc3C)c3ccccc23)c1 (racemic) [BC20303] | + (“+” >25% increase in NMNAT2 luciferase activity at >25 μM.)
Cc1ccc(C)c(Cn2c(C)c([C@H]3C[C@@H]3C(=O)NCc3ccco3)c3ccccc32)c1 (racemic) [BC20323] | + (“+” >25% increase in NMNAT2 luciferase activity at >25 μM.)
COc1ccccc1CNC(=O)[C@H]1C[C@@H]1c1c(C)n(Cc2cc(C)ccc2C)c2ccccc12 (racemic) [BC20324] | + (“+” >25% increase in NMNAT2 luciferase activity at >25 μM.)
COc1cccc(CNC(=O)[C@H]2C[C@@H]2c2c(C)n(Cc3cc(C)ccc3C)c3ccccc23)c1 (racemic) [BC20325] | + (“+” >25% increase in NMNAT2 luciferase activity at >25 μM.)
Cc1ccc(C)c(Cn2c(C)c([C@H]3C[C@@H]3C(=O)NCCc3ccccc3)c3ccccc32)c1 (racemic) [BC20326] | ++ (“++” >25% increase in NMNAT2 luciferase activity at >1 μM ≤25 μM.)
Cc1ccc(C)c(Cn2cc([C@H]3C[C@@H]3C(=O)NCc3ccco3)c3ccccc32)c1 (racemic) [BC20344] | + (“+” >25% increase in NMNAT2 luciferase activity at >25 μM.)
Cc1ccc(C)c(Cn2cc([C@H]3C[C@@H]3C(=O)NCc3ccc(C)o3)c3ccccc32)c1 (racemic) [BC20345] | + (“+” >25% increase in NMNAT2 luciferase activity at >25 μM.)
Cc1ccc(C)c(Cn2cc([C@H]3C[C@@H]3C(=O)NCc3cccc(F)c3)c3ccccc32)c1 (racemic) [BC20346] | + (“+” >25% increase in NMNAT2 luciferase activity at >25 μM.)
Cc1ccc(C)c(Cn2cc([C@H]3C[C@@H]3C(=O)NCc3ccccc3C)c3ccccc32)c1 (racemic) [BC20347] | ++ (“++” >25% increase in NMNAT2 luciferase activity at >1 μM ≤25 μM.)
Cc1cccc(CNC(=O)[C@H]2C[C@@H]2c2cn(Cc3cc(C)ccc3C)c3ccccc23)c1 (racemic) [BC20348] | + (“+” >25% increase in NMNAT2 luciferase activity at >25 μM.)
COc1ccccc1CNC(=O)[C@H]1C[C@@H]1c1cn(Cc2cc(C)ccc2C)c2ccccc12 (racemic) [BC20349] | + (“+” >25% increase in NMNAT2 luciferase activity at >25 μM.)
COc1cccc(CNC(=O)[C@H]2C[C@@H]2c2cn(Cc3cc(C)ccc3C)c3ccccc23)c1 (racemic) [BC20350] | + (“+” >25% increase in NMNAT2 luciferase activity at >25 μM.)

SMILES | E: compound efficacy for NMNAT2 activation (concentration giving >25% increase in NMNAT2 luciferase activity)
Cc1ccc(C)c(Cn2cc([C@H]3C[C@@H]3C(=O)NCc3cccnc3)c3ccccc32)c1 (racemic) [BC20351] | + (“+” >25% increase in NMNAT2 luciferase activity at >25 μM.)
Cc1ccc(C)c(Cn2cc([C@H]3C[C@@H]3C(=O)NCc3ccncc3)c3ccccc32)c1 (racemic) [BC20352] | + (“+” >25% increase in NMNAT2 luciferase activity at >25 μM.)
CCCCN(CC)Cc1ccc(CNC(=O)[C@H]2C[C@@H]2c2cn(Cc3cc(C)ccc3C)c3ccccc23)o1 (racemic) [BC20353] | ++ (“++” >25% increase in NMNAT2 luciferase activity at >1 μM ≤25 μM.)
Cc1ccc(C)c(Cn2cc([C@H]3C[C@@H]3C(=O)N3CCc4occc4C3)c3ccccc32)c1 (racemic) [BC20359] | + (“+” >25% increase in NMNAT2 luciferase activity at >25 μM.)
Cc1ccc(C)c(Cn2cc([C@H]3C[C@@H]3C(=O)NCCc3ccccc3)c3ccccc32)c1 (racemic) [BC20360] | ++ (“++” >25% increase in NMNAT2 luciferase activity at >1 μM ≤25 μM.)
Cc1ccc(C)c(Cn2cc([C@H]3C[C@@H]3C(=O)NC(C)Cc3ccco3)c3ccccc32)c1 (mixture of isomers) [BC20363] | ++ (“++” >25% increase in NMNAT2 luciferase activity at >1 μM ≤25 μM.)
Cc1ccc(C)c(Cn2cc([C@H]3C[C@@H]3C(=O)N(CCN(C)C)Cc3ccco3)c3ccccc32)c1 (racemic) [BC20364] | +++ (“+++” >25% increase in NMNAT2 luciferase activity at ≤1 μM.)
COCCN(CCNC(=O)[C@H]1C[C@@H]1c1cn(Cc2cc(C)ccc2C)c2ccccc12)Cc1ccco1 (racemic) [BC20365] | + (“+” >25% increase in NMNAT2 luciferase activity at >25 μM.)
Cc1ccc(C)c(Cn2cc([C@H]3C[C@@H]3C(=O)NCc3ccccn3)c3ccccc32)c1 (racemic) [BC20366] | + (“+” >25% increase in NMNAT2 luciferase activity at >25 μM.)
Cc1c(C)n(Cc2ccccc2F)c2ccc(C(=O)NCc3ccco3)cc12 [BC20100] | ++ (“++” >25% increase in NMNAT2 luciferase activity at >1 μM ≤25 μM.)
Cc1c(C)n(Cc2cccc(F)c2)c2ccc(C(=O)NCc3ccco3)cc12 [BC20101] | +++ (“+++” >25% increase in NMNAT2 luciferase activity at ≤1 μM.)
Cc1ccc(C)c(Cn2c3c(c4ccccc42)CC(C(=O)NCc2ccco2)CC3)c1 (stereo not shown) [BC20102] | ++ (“++” >25% increase in NMNAT2 luciferase activity at >1 μM ≤25 μM.)
Cc1c(C)n(Cc2ccccc2F)c2ccc(C(=O)NCc3ccccc3F)cc12 [BC20103] | +++ (“+++” >25% increase in NMNAT2 luciferase activity at ≤1 μM.)
Cc1c(C)n(Cc2ccccc2F)c2ccc(C(=O)NCc3cccc(F)c3)cc12 [BC20104] | ++ (“++” >25% increase in NMNAT2 luciferase activity at >1 μM ≤25 μM.)
Cc1ccccc1CNC(=O)c1ccc2c(c1)c(C)c(C)n2Cc1ccccc1F [BC20105] | ++ (“++” >25% increase in NMNAT2 luciferase activity at >1 μM ≤25 μM.)
COc1ccccc1CNC(=O)c1ccc2c(c1)c(C)c(C)n2Cc1ccccc1F [BC20106] | ++ (“++” >25% increase in NMNAT2 luciferase activity at >1 μM ≤25 μM.)
Cc1c(C)n(Cc2ccccc2F)c2ccc(C(=O)N3CCN(C(=O)c4ccco4)CC3)cc12 [BC20107] | ++ (“++” >25% increase in NMNAT2 luciferase activity at >1 μM ≤25 μM.)
Cc1c(C)n(Cc2ccccc2F)c2ccc(C(=O)NCc3cccnc3)cc12 [BC20108] | +++ (“+++” >25% increase in NMNAT2 luciferase activity at ≤1 μM.)
Cc1ccc(CNC(=O)c2ccc3c(c2)c(C)c(C)n3Cc2cccc(F)c2)o1 [BC20109] | ++ (“++” >25% increase in NMNAT2 luciferase activity at >1 μM ≤25 μM.)
Cc1c(C)n(Cc2cccc(F)c2)c2ccc(C(=O)NCC3CCCO3)cc12 (stereo not shown) [BC20110] | +++ (“+++” >25% increase in NMNAT2 luciferase activity at ≤1 μM.)
Cc1c(C)n(Cc2cccc(F)c2)c2ccc(C(=O)NCc3cccc(F)c3)cc12 [BC20112] | +++ (“+++” >25% increase in NMNAT2 luciferase activity at ≤1 μM.)
